These results are taken from patent publication US20070004735A1, “Method for inhibiting the replication of herpes viruses” (priority 2003, published 2007).

Series [1] concerns HCMV AD169 clone with mutation in UL86 D563N. The experiment in a line: Susceptibility (IC50) of resistant HCMV AD169 clone D563N. It counts as cell-based, Human cytomegalovirus. The note with it: Human betaherpesvirus 5, read-out: IC 50, D563N. Here is the method: (§1) The test compounds are employed as 50 millimolar (mM) solutions in dimethyl sulfoxide (DMSO). Ganciclovir®, Foscarnet® and Cidofovir® are used as reference compounds. After addition of in each case 2 μl of the 50, 5, 0.5 and 0.05 mM DMSO stock solutions to 98 μl portions of cell culture medium in row 2 A-H for duplicate determinations, 1:2 dilutions are carried out with 50 μl portions of medium up to row 11 of the 96-well plate. The wells in rows 1 and 12 each contain 50 μl of medium. 150 μl of a suspension of 1×10^4 cells (human prepuce fibroblasts [NHDF]) are then pipetted into each of the wells (row 1=cell control) and, in rows 2-12, a mixture of HCMV-infected and uninfected NHDF cells (M.O.I.=0.001-0.002), i.e. 1-2 infected cells per 1000 uninfected cells. Row 12 (without substance) serves as virus control. The final test concentrations are 250-0.0005 μM. The plates are incubated at 37° C./5% CO2 for 6 days, i.e. until all the cells are infected in the virus controls (100% cytopathogenic effect [CPE]). The wells are then fixed and stained by adding a mixture of formalin and Giemsa's dye (30 minutes), washed with double-distilled water and dried in a drying oven at 50° C. The plates are then assessed visually using an overhead microscope (plaque multiplier from Technomara).
(§2) For this purpose, NHDF cells are seeded in tissue culture vessels. 5×10^3 cells per well are seeded in 96-well plates and infected with cell-free HCMV AD169 with an moi of 0.03. The infections are cultivated under substance pressure which corresponds to 10 times the IC50 of the substance. Preferably, 30-100 96-well plates inoculated as described are made up. […] Finally, viral stocks are produced as described above and frozen. Serial ten-fold dilution of the virus-infected cells or of the cell culture supernatant of the virus-infected cells is followed by determination of the titer on 24-well plates of confluent NHDF cells after vital staining with neutral red. Finally, the susceptibility to various substances (IC50 determination) is determined as described above.
(§3) The HCMVAD169 mutants selected as described above are grown in vitro on human embryonic prepuce fibroblasts (NHDF cells) under substance pressure (10×IC50 HCMVAD169). After infection of the NHDF cells with a multiplicity of infection (M.O.I) of 0.01, the virus-infected cells are harvested 5-10 days later, and the total DNA is isolated from these cells with the aid of established standard methods (e.g. phenol extraction and ethanol precipitation). Qiagen Sequencing Services (Qiagen, Hilden) determined, after amplification of the viral UL86 gene by PCR, the DNA sequence, which was then transcribed into protein sequence. Compared with the initial strain HCMV AD169, the differences shown in table 2 were detectable in the protein sequence of the major capsid protein (UL86) in the resistant viruses. The IC50 values [μM] of various substances on these mutants compared with the initial strain are likewise indicated. (n.d.=not measured). […] Depending on the nature of the substance, certain mutations lead to various extents of resistance.

Series [2] concerns HCMV AD169 clone with mutation in UL86 A689T. Kind of series: Susceptibility (IC50) of resistant HCMV AD169 clone A689T. Format: cell-based, Human cytomegalovirus. The settings on record: Human betaherpesvirus 5, read-out: IC 50, A689T. Here is the method: as §1, §2, §3
Series [3] relates to HCMV AD169 clone with mutation in UL86 K1338N. Kind of series: Susceptibility (IC50) of resistant HCMV AD169 clone K1338N. It counts as cell-based, Human cytomegalovirus. The note with it: Human betaherpesvirus 5, read-out: IC 50, K1338N. Here is the method: as §1, §2, §3
Series [4] has as its system HCMV AD169 clone with mutation in UL86 R435C. The experiment in a line: Susceptibility (IC50) of resistant HCMV AD169 clone R435C. The settings on record: Human betaherpesvirus 5, read-out: IC 50, R435C. Format: cell-based, Human cytomegalovirus. Here is the method: as §1, §2, §3
Series [5] relates to HCMV AD169 clone with mutation in UL86 V601M. The experiment in a line: Susceptibility (IC50) of resistant HCMV AD169 clone V601M. Format: cell-based, Human cytomegalovirus. The settings on record: Human betaherpesvirus 5, read-out: IC 50, V601M. Here is the method:
as §1, §2, §3

Series [6] concerns HCMV AD169 clone with mutation in UL86 P1189T. Kind of series: Susceptibility (IC50) of resistant HCMV AD169 clone P1189T. It counts as cell-based, Human cytomegalovirus. The note with it: Human betaherpesvirus 5, read-out: IC 50, P1189T. Here is the method:
as §1, §2, §3

The test system of a further series is wild-type HCMV AD169. The experiment in a line: Susceptibility (IC50) of HCMV AD169 wild-type. It counts as cell-based, Human cytomegalovirus. The note with it: Human betaherpesvirus 5, NHDF cells, read-out: IC 50, Wild-type. Here is the method: as §1, §2, §3
Series [7] deals with HCMV AD169 clone with mutation in UL86 P586T. Kind of series: Susceptibility (IC50) of resistant HCMV AD169 clone P586T. Format: cell-based, Human cytomegalovirus. The note with it: Human betaherpesvirus 5, read-out: IC 50, P586T. Here is the method:
as §1, §2, §3

For series [8], the system named is HCMV AD169 clone with mutation in UL86 Q1223R. The experiment in a line: Susceptibility (IC50) of resistant HCMV AD169 clone Q1223R. Format: cell-based, Human cytomegalovirus. The settings on record: Human betaherpesvirus 5, read-out: IC 50, Q1223R. Here is the method:
as §1, §2, §3

In series [9] the test system is HCMV AD169 clone with mutation in UL86 A1226T. Kind of series: Susceptibility (IC50) of resistant HCMV AD169 clone A1226T. The settings on record: Human betaherpesvirus 5, read-out: IC 50, A1226T. It counts as cell-based, Human cytomegalovirus. Here is the method: as §1, §2, §3
Series [10] deals with Human cytomegalovirus (HCMV). Kind of series: Anti-HCMV cytopathogenicity test. Format: cell-based. The settings on record: for IC50: Human betaherpesvirus 5, 144 h, NHDF cells, 6 days, cytopathogenic effect, read-out: IC50, antiviral activity in vitro; for SI (selectivity index): antiviral activity in vitro. Here is the method:
Human cytomegalovirus (HCMV), DavisSmith (ATCC VR807) or AD169 (ATCC VR538) strain, is grown in vitro on human embryonic prepuce fibroblasts (NHDF cells). After the NHDF cells have been infected with a multiplicity of infection (M.O.I.) of 0.01, the virus-infected cells are harvested 5-10 days later and stored in the presence of minimal essential medium (MEM), 10% fetal calf serum (FCS) with 10% DMSO at −80° C. A cell-free stock is produced by removing only the cell culture supernatant and immediately freezing at −80° C. After serial ten-fold dilutions of the virus-infected cells or of the cell culture supernatant of the virus-infected cells (cell-free virus), the titer is determined on 24-well plates of confluent NHDF cells after vital staining with neutral red.
as §1
In general terms: Cytopathic effects are the visible damage that an infection or toxin causes in cultured cells.

For series [11], the system named is HCMV AD169 clone with mutation in UL86 D441N. The experiment in a line: Susceptibility (IC50) of resistant HCMV AD169 clone D441N. It counts as cell-based, Human cytomegalovirus. The settings on record: Human betaherpesvirus 5, read-out: IC 50, D441N. Here is the method: as §1, §2, §3
In series [12] the test system is HCMV AD169 clone with mutation in UL86 R682H. The experiment in a line: Susceptibility (IC50) of resistant HCMV AD169 clone R682H. Format: cell-based, Human cytomegalovirus. The settings on record: Human betaherpesvirus 5, read-out: IC 50, R682H. Here is the method: as §1, §2, §3
Series [13] has as its system HCMV AD169 clone with mutation in UL86 E1320Q. Kind of series: Susceptibility (IC50) of resistant HCMV AD169 clone E1320Q. It counts as cell-based, Human cytomegalovirus. The settings on record: Human betaherpesvirus 5, read-out: IC 50, E1320Q. Here is the method: as §1, §2, §3

Regarding `CC(=O)Nc1ccc(NC(=O)Nc2ccc(F)c(Cl)c2)cc1` [Example 3, N-[4-({[(3-Chloro-4-fluorophenyl)amino]carbonyl}amino)phenyl]acetamide], the IC50 in [1], in series [2], in series [3], in [4], in [5] and in series [6] was > 20 µM throughout. Moreover, the IC50 in the series on wild-type HCMV AD169 was 0.5 µM; in series [7], > 20 µM; in [8] it was > 20 µM; in series [9], > 20 µM; in series [10] it was 0.5 µM; in series [11], > 20 µM. The IC50 in series [12] and in [13] was > 20 µM in each case. Also, the “SI (selectivity index)” value in series [10] came to 40.

As to `CCCCS(=O)(=O)Nc1cccc(NC(=O)Nc2ccc(F)c(Cl)c2)c1` [Example 5, N-[3-({[(3-Chloro-4-fluorophenyl)amino]carbonyl}amino)phenyl]-1-butanesulfonamide], the IC50 is 1.4 µM in series [1]; 0.4 µM in series [2]; > 9 µM in series [3]; 6 µM in [4]; 1.5 µM in series [5]; 0.14 µM with wild-type HCMV AD169. Also, the IC50 is 0.8 µM in [7], 1.4 µM in [8], 0.14 µM in [10] and 9 µM in series [13]. In addition, in series [10], the “SI (selectivity index)” value is 70.

On to `CC(C)n1c(-c2cccc(NC(=O)Nc3ccc(F)c(Cl)c3)c2)n[nH]c1=O` [Example 6, 1-(3-Chloro-4-fluorophenyl)-3-[3-(4-isopropyl-5-oxo-4,5-dihydro-1H-[1,2,4]triazol-3-yl)phenyl]urea], for which, in series [10], the IC50 is 0.4 µM and the “SI (selectivity index)” value was found to be 150.

With `Nc1nc(O)c2ncn(COC(CO)CO)c2n1` [Ganciclovir, reference compound], the IC50 in series [1], in [2], in [3], in series [4], in [5] and in [6] was 1 µM each time. In addition, the IC50 (in the series with wild-type HCMV AD169; in series [7]; in [8]; in series [9]; in series [11]; in series [12]) was 1 µM in each case. Moreover, the IC50 in series [13] turned out to be 1 µM.

Regarding `O=C(Nc1cccc(-c2n[nH]c(=O)n2C2CCCCC2)c1)Nc1ccc(F)c(Cl)c1` [Example 7, 1-(3-Chloro-4-fluorophenyl)-3-[3-(4-cyclohexyl-5-oxo-4,5-dihydro-1H-[1,2,4]triazol-3-yl)phenyl]urea], the IC50 amounted to 15 µM in series [1]; 4.5 µM in series [2]; 15 µM in series [3]; 3 µM in [4]; 12 µM in series [5]; 1.5 µM in the series with wild-type HCMV AD169. Further, the IC50 in series [7] was 7.6 µM; in series [8], 12 µM; in [10], 1.5 µM; in series [13] it was 24 µM. Moreover, the “SI (selectivity index)” value in [10] was found to be 30.

`Cc1cc(Cl)ccc1NC(=O)Nc1cccc(C2=NNC(=O)C2(C)C)c1` [Example 8, N-(4-Chloro-2-methylphenyl)-N′-[3-(4,4-dimethyl-5-oxo-4,5-dihydro-1H-pyrazol-3-yl)phenyl]urea] displayed a melting point of 226.8 °C. Besides, the IC50 in series [1] was > 21 µM. For the same compound, in series [2], the IC50 is > 21 µM. The IC50 in series [3] is > 21 µM. Moreover, the IC50 in [4] is 1.3 µM. Moreover, in series [5], the IC50 is > 21 µM. Besides, the IC50 in the series on wild-type HCMV AD169 is 0.6 µM. Moreover, the IC50 in [7] is > 21 µM. The IC50 in series [8] is > 21 µM. For the same compound, in [10], the IC50 worked out at 0.6 µM and the “SI (selectivity index)” value is 30. Also, the IC50 in [13] is > 21 µM.

One may read the melting point as the temperature of the solid-liquid transition.
